Experimental data: publication PMC5482895, “Structural and biochemical studies of sulphotransferase 18 from Arabidopsis thaliana explain its substrate specificity and reaction mechanism” (Scientific Reports, 2017)

What was measured:
AtSOT18 [1] = target: T1, AtSOT18 (Arabidopsis thaliana, UniProt Q9C9C9); test: two-dimensional enzyme kinetic titration (HPLC), non-linear fit; format: biochemical
T1 construct: gene SOT18
T1 sequence (Q9C9C9 1-350): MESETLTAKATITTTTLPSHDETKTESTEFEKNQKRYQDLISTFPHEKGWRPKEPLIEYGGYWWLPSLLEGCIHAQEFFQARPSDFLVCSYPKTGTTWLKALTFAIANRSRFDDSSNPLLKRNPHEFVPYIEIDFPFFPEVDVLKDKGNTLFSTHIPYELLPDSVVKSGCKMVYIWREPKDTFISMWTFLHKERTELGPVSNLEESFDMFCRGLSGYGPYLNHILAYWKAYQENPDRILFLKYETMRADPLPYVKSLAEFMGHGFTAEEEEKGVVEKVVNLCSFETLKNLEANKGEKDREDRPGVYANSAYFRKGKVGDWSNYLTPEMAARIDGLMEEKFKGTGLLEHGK

AtSOT18 [2] = target: T1, AtSOT18; test: sulphotransferase activity of purified enzyme, HPLC at […] nm; format: biochemical
AtSOT18 [3] = target: T2, AtSOT18 (Arabidopsis thaliana, UniProt Q9C9C9); test: X-ray crystal structure ([…] Å), plus competitive inhibition kinetics against PAPS; format: biochemical
T2 construct: gene SOT18; residues 26–347 in the model
T2 sequence (Q9C9C9 26-347): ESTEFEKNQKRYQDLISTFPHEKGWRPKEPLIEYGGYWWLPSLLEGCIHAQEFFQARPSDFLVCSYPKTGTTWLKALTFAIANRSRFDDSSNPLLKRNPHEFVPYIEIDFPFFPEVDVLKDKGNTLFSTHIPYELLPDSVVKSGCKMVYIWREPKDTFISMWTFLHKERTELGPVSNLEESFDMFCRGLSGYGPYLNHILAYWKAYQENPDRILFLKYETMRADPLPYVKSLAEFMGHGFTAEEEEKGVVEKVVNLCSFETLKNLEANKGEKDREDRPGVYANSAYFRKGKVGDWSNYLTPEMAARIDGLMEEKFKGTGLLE

AtSOT18 [4] = target: T1, AtSOT18; test: sulphotransferase activity of purified enzyme, HPLC at […] nm; format: biochemical; remark: listed apart in the source
AtSOT18 [5] = target: T2, AtSOT18; test: X-ray crystal structure of ternary complex ([…] Å); format: binding
AtSOT18 [6] = target: T1, AtSOT18; test: sulphotransferase activity of purified enzyme, HPLC at […] nm; format: biochemical; remark: listed apart in the source
AtSOT18 [7] = target: T1, AtSOT18; test: as above; format: biochemical; remark: listed apart in the source

Nc1ncnc2c1ncn2[C@@H]1O[C@H](COP(=O)(O)OS(=O)(=O)O)[C@@H](OP(=O)(O)O)[C@H]1O [PAPS, 3′-phosphoadenosine 5′-phosphosulphate] was tested, and the Kd (AtSOT18 [1]) was 4.2 ± 2.6 µM.

C=CC/C(=N/O)S[C@@H]1O[C@H](CO)[C@@H](O)[C@H](O)[C@H]1O [Sinigrin (ds form), ds-Gl sinigrin] gave a Sinigrin (AtSOT18 [2]) of 879 ± 410 pkatal mg^−1.

In the case of Nc1ncnc2c1ncn2[C@@H]1O[C@H](COP(=O)(O)O)[C@@H](OP(=O)(O)O)[C@H]1O [PAP, 3′-phosphoadenosine 5′-phosphate], the Ki (AtSOT18 [3]) is reported as 3 ± 1.7 µM.

With CSCCC/C(=N/O)S[C@@H]1O[C@H](CO)[C@@H](O)[C@H](O)[C@H]1O [3MTP, ds-3MTP] the “3 MTP” value (AtSOT18 [4]) was 1624 ± 122 pkatal mg^−1.

With C=CCC(=NOS(=O)(=O)O)S[C@@H]1O[C@H](CO)[C@@H](O)[C@H](O)[C@H]1O (stereo in doubt) [sinigrin] the “X-ray crystal structure of ternary complex (1.92 Å)” value (AtSOT18 [5]) was “together with the product Gl sinigrin (PDB ID: 5MEX) were solved”.

For CSCCCCCCCC/C(=N/O)S[C@@H]1O[C@H](CO)[C@@H](O)[C@H](O)[C@H]1O [8MTO, ds-8MTO], the 8MTO (AtSOT18 [6]) was 1618 ± 272 pkatal mg^−1.

In the case of OC[C@H]1O[C@@H](S/C(Cc2c[nH]c3ccccc23)=N\O)[C@H](O)[C@@H](O)[C@@H]1O [I3M, ds-I3M], the I3M (AtSOT18 [7]) is reported as 501 ± 46 pkatal mg^−1.
